Results reported in patent US9345671B2, “Adiponectin production enhancer” (Daiichi Sankyo Company, Limited, priority 2003, dated 2016).

What was measured:
C57BL/6J mice [1] = experiment: Insulin tolerance test using pravastatin-dosed mice; format: in vivo; conditions: C57BL/6J mice dosed in feed for 15 weeks, fasted 2 hours, insulin 0.5 u/kg intraperitoneally; significantly lower than non-dose group (148 mg/dl)
Protocol: A group administered with pravastatin by mixing in feed for 15 weeks and a non-dosed group of C57BL/6J mice (n=5) were fasted for 2 hours. After measuring the body weight of each animal, insulin (Humalin, Lilly) was administered intraperitoneally at 0.5 u/kg, and blood samples were collected from the tail vein immediately before the start of administration and at 15, 30, 60 and 90 minutes after the start of administration followed by measurement of blood glucose levels.

[2] = tested on: C57BL/6J mouse adipocytes; experiment: Glucose uptake test using isolated adipocytes from pravastatin-dosed mice; format: in vivo
Protocol: (i) Epididymal adipose tissue was excised from a group administered with pravastatin for 16 weeks and a non-dosed group of C57BL/6J mice (n=5). The excised adipose tissue was handled under conditions of 37° C. at all times. The adipose tissue was cut into small pieces with a scissors, followed by the addition of medium (DMEM, 1 mM sodium pyruvate, 25 mM HEPES pH 7.4, 0.1% BSA, 100 u/ml penicillin, 0.1 mg/ml streptomycin) containing 1 mg/ml of collagenase I (Worshington), and shaking at 37° C. and 80 rpm. Following the reaction, 2.5 volumes of the aforementioned medium were added, the adipocytes were screened out by passing the cell suspension through a 260 μm mesh sieve, and again passed through a 100 μm mesh sieve to prepare an adipocyte suspension. […] Subsequently, 0.6 μCi of ^3H-labeled 2-deoxyglucose was added and allowed to react for 30 minutes. Following the reaction, the cell suspension was immediately transferred to a centrifuge tube containing silicone oil and centrifuged. After cutting out the oil layer of the upper layer containing adipocytes with a knife, it was transferred to a glass vial containing 4 ml of Hionic Fluor (Perkin-Elmer) liquid scintillation counter cocktail followed by measurement of specific radioactivity. The amount of measured radioactivity of the ^3H-2-deoxyglucose was used as an indicator of the amount of glucose taken up by the cells. (4) Results

C57BL/6J mice [3] = experiment: Administration of pravastatin to mice in feed: blood glucose levels and adiponectin concentrations; format: in vivo; conditions: 0.06% (wt/wt) in feed for 15 weeks
Protocol: The body weights of the animals were measured and blood samples were collected on the day the test started, and the animals were divided into two groups of 5 animals per cage based on their body weights and blood glucose levels. […] Blood samples were collected from the tail vein in an amount equal to one heparinized capillary tube.
The amount of feed and general behaviour were checked at least once a day.
Blood glucose levels were measured on the days when blood samples were collected.

secreted adiponectin = experiment: Measurement of amount of secreted adiponectin in 3T3-L1 adipocyte culture supernatant by Western blotting; format: cell-based; conditions: 3T3-L1 adipocytes culture supernatant, test compound 10 μM, 48 hours then 24 hours after replacing the medium; densitometer
Protocol: (§1) Preadipocyte cell line 3T3-L1 was purchased from the American Type Culture Collection (ATCC). […] Subsequently, the medium was replaced with fresh growth medium every 3 days, and the 3T3-L1 adipocytes were prepared on day 10 after the start of differentiation. Test compounds that were poorly soluble in water were used after dissolving in DMSO. Test compounds that were easily soluble in water were dissolved in sterile water followed by addition of the same amount of DMSO as that used for the aforementioned poorly water-soluble test compounds. In addition, in the case of test compounds that are poorly soluble in water, the test compound may be dissolved in ethanol and used following the addition of 0.1 N aqueous sodium hydroxide solution after shaking as necessary. After allowing the 3T3-L1 cells to adequately differentiate into adipocytes, a test compound was added to the medium to a final concentration of 10 μM followed by culturing the cells for 48 hours. The cells were additionally cultured for 24 hours after replacing the medium. […] Secretion of adiponectin into culture supernatant was detected by Western blotting. […] After washing the PVDF membrane, the adiponectin bands were detected using ECL Detection Reagents (Amersham-Pharmacia). The bands were quantified with a densitometer (Molecular Devices). The amounts of secreted adiponectin were analyzed by Western blotting.

adiponectin mRNA = experiment: Measurement of adiponectin mRNA by quantitative RT-PCR in 3T3-L1 adipocytes; format: cell-based; conditions: test compound 10 μM, 48 hours then 24 hours after replacing the medium, 36B4 internal control
Protocol: as §1, with “The synthesized cDNA was amplified using FastStrand DNA Master SYBR Green I (Roche Diagnostics), and the amplified PCR product” for “Secretion of adiponectin into culture supernatant”, “with LightCycler (Roche Diagnostics).” for “by Western blotting.”, “The” for “After washing the PVDF membrane, the”, “mRNA amount was measured according to quantitative RT-PCR.” for “bands were detected using ECL Detection Reagents (Amersham-Pharmacia). The bands were quantified with a densitometer (Molecular Devices). The amounts of secreted adiponectin were analyzed by Western blotting.”

SMILES	blood glucose level at 60 minutes after administration of insulin (C57BL/6J mice [1])	insulin sensitivity versus non-dose group ([2]; adipocytes isolated from C57BL/6J mice dosed for 16 weeks)	amount of glucose uptake relative to non-dose group ([2]; epididymal adipocytes isolated from C57BL/6J mice dosed for 16 weeks, insulin-induced 3H-2-deoxyglucose uptake)	blood glucose levels, dose group versus non-dose group (C57BL/6J mice [3])	adiponectin concentrations in dose group relative to non-dose group (C57BL/6J mice [3]; blood)	amount of secreted adiponectin relative to the control group (secreted adiponectin)	amount of adiponectin mRNA relative to the control group (adiponectin mRNA)
CC[C@H](C)C(=O)O[C@H]1C[C@H](O)C=C2C=C[C@H](C)[C@H](CC[C@@H](O)C[C@@H](O)CC(=O)O)[C@H]21 [pravastatin, (+)-(3R,5R)-3,5-dihydroxy-7-[(1S,2S,6S,8S,8aR)-6-hydroxy-2-methyl-8-[(S)-2-methylbutyryloxy]-1,2,6,7,8,8a-hexahydro-1-naphthyl]heptanoic acid]	110 mg/dL	increased insulin sensitivity	1.4 times	no significant differences	1.28 times	1.7 times	1.6 times
CC(C)c1nc(N(C)S(C)(=O)=O)nc(-c2ccc(F)cc2)c1/C=C/[C@@H](O)C[C@@H](O)CC(=O)O [rosuvastatin, (+)-(3R,5S)-7-[4-(4-fluorophenyl)-6-isopropyl-2-(N-methyl-N-methanesulfonylamino)pyrimidin-5-yl]-3,5-dihydroxy-6(E)-heptenoic acid]						1.6 times	1.3 times
